Non-standard residues stand in square brackets, D forms with d. Residues, ends and D or L forms follow the SMILES beside them. *: point of attachment. Dolaproine = CO[C@@H]([C@@H]1CCCN1)[C@@H](C)C(=O)O; Dil = CC[C@H](C)[C@H](NC)[C@@H](CC(=O)O)OC; X1 = C[C@@H](N*)[C@@H](O)c1ccccc1; NMeV = CN[C@H](C(=O)O)C(C)C
Columns and labels:
[1] = system: HCT-15 multi-drug resistant (P-gp) CRC xenograft; test: HCT-15 multi-drug resistant xenograft model; type: in vivo, NCr nu/nu mice; details: HCT-15 MDR model
Procedure: To examine the effect of 3ee9/MMAE in a multi-drug resistance model, female NCr nu/nu mice were implanted subcutaneously (s.c.) with 5×10^6 HCT-15 cells. HCT-15 is a multi-drug resistant (MDR) line that over-expresses P-glycoprotein (P-gp). […] 3ee9/MMAE, Taxol, and Gemcitabine were administered when mice had established tumors with mean weight of ˜150 mg. Gemcitabine, a pyrimidine analog that is not a P-gp substrate was used as a positive control.

MN [2] = target: T1, MN (Homo sapiens, UniProt Q16790); test: Surface plasmon resonance (BIAcore) binding to MN protein; set-up: The MN protein represents the entire extra-cellular domain of the protein with a C-terminal histag for purification; His tag (C); made in house; host or cells: HKB-11 (mammalian cell line); details: read-out: kD for purified MN protein
Procedure: The binding interactions between MN protein and the antibodies of this invention were analyzed using surface plasmon resonance technology on a BIAcore 3000 instrument (BIAcore, Uppsala, Sweden). For the binding of full-length IgGs (1e4, 1aa1, and 3ee9), goat anti-human IgG Fc was covalently coupled to the CM5 biosensor chip at high density using a standard amine coupling kit (BIAcore, Uppsala, Sweden). A capture assay was then used to bind these IgG to the anti-human IgG Fc-immobilized surface, aiming for a 300 response unit BIAcore signal. […] After ligand binding, the flow rate was then increased to 25 μl/min and various concentrations of MN analyte (e.g., range of 50 nM to 1 nM) were flowed over the surface for 10 minutes such that the association phase could be monitored. […] The binding of Fabs to MN was similarly determined except that an anti-human-Fab IgG was immobilized onto the chip and used to capture the Fabs prior to the assessment of MN binding.
Binding interactions between HKB11-expressed human MN protein and human full-length anti-MN MAbs were analyzed using surface plasmon resonance technology on a BIAcore 3000 instrument (BIAcore, Uppsala, Sweden). […] After ligand binding, flow rate was increased to 25 ul/min and MN analyte (50 nM to 1 nM) was flowed over the surface for 10 min such that the association phase could be monitored. […]

MN [3] = target: T1, MN; test: Immunoprecipitation of biotinylated cell surface proteins; type: binding; set-up: incubated with cell lysates of MN+ (Pc3 mm2) and MN− (DLD-1) cell lines that had been selectively labeled with biotin; endogenous in cells; host or cells: PC-3 mm2 (MN+); DLD-1 as the MN- control; details: biotin-labeled lysates of MN+ (Pc3 mm2) and MN− (DLD-1) cell lines
Procedure: To further explore specificity, various candidate antibodies including the antibody portion of 3ee9/MMAE (3ee9) and the reference antibody G250 were incubated with cell lysates of MN+ (Pc3 mm2) and MN− (DLD-1) cell lines that had been selectively labeled with biotin. Complexes between the antibodies and cellular proteins were immuno-precipitated and the co-precipitated antigens visualized using immunoblots developed with enzyme-linked streptavidin.

Colo-205 CRC xenograft = test: Colo-205 subcutaneous xenograft model; details: Colo-205
Source text: The in vivo anti-tumor effect of 3ee9/MMAE was examined in 6 different human xenograft tumor models. These models were established through subcutaneous implantation of human tumor cells into female athymic NCr (nu/nu) mice (Taconic, N.Y.). The human tumor xenograft models evaluated included the MaTu human mammary carcinoma model, the HT-29 and Colo-205 human colo-rectal carcinoma (CRC) models, PC3MM2 prostate carcinoma model, the HCT-15 multi-drug resistant (P-gp) CRC model, and the MiaPaCa2 human pancreatic model. PBS was used as a vehicle, and dosing solutions were prepared fresh daily. The dosing volume was 0.1 mL/10 g (10 mL/kg).
The length and width of each tumor were measured using an electronic caliper 2-3 times per week, and tumor weights (mg) were calculated based on the formula of [length (mm)×width (mm)^2]/2. All data, including daily observations, obtained throughout the course of the study were documented in Anti-tumor Data Acquisition System (ADAS). […] Tumor growth inhibition (TGI) was calculated as (1-T/C)×100, where T=final tumor weights from a treated group after the last dose, and C=final tumor weights from the control group after the last dose. In addition, anti-tumor efficacy was measured as the incidence of responses (or responders or regressions) defined as tumors with ≦50% of their initial size. A minimum duration of 7 days is required for a response to be considered durable.
The anti-tumor activity of 3ee9/MMAE was next evaluated against human prostate (PC-3 mm2) and CRC (Colo-205) tumor xenografts. Female NCr nu/nu mice were implanted subcutaneously (s.c.) either with 5×10^6 PC3 mm2 or Colo-205 cells. Treatment was initiated when tumors were of an average size of approximately 125-150 mg. The general health of mice was monitored and recorded daily. Tumor dimensions and body weights were recorded twice a week starting with the first day of treatment.
In the PC3 mm2 and Colo-205 studies, 3ee9/MMAE was administered intravenously (i.v.) once every 4th day for a total of 3 injections (Q4Dx3) at doses of 1, 3, 10 and 30 mg/kg and 1.25, 2.5, 5 and 10 mg/kg, respectively.
The feasibility of using 3ee9/MMAE in conjunction with other cancer chemotherapeutic agents was investigated. Xeloda® is used as first line treatment of patients with metastatic colorectal carcinoma. The activity and tolerability of combined therapy using 3ee9/MMAE and Xeloda® was evaluated. 3ee9/MMAE was administered i.v. on a Q4Dx3 schedule and at dose levels of 1.25, 2.5 and 10 mg/kg. Xeloda® was administered orally once daily for 9 days at dose levels of 250 and 500 mg/kg.

[4] = system: HT-29 human CRC xenograft; test: HT-29 subcutaneous xenograft model; type: in vivo, athymic NCr (nu/nu) mice; details: HT-29; for % Inhibition (1-T/D)*100 (Day 18) / Percent Regressions: Q4D × 3
Procedure: When tumors reached an average size of ˜120 mg (5 days), treatment was initiated. […] In addition, MMAE was assessed as a free drug at a dose of 0.1, 0.2 and 1 mg/kg. The 0.1 and 0.2 mg/Kg doses of MMAE represent equivalent amounts of this drug to those present on 5 and 10 mg/Kg 3ee9/MMAE respectively.
Anti-tumor effect of 3ee9/MMAE was also assessed in varying schedules, i.e., once a week dosing for total of two doses (Q7Dx2, FIG. 20) and a single dose at the time of staging (Q1Dx1, FIG. 21). In both schedules, 3ee9/MMAE was dosed at 0.625, 1.25, 2.5, 5 and 10 mg/kg.

Compound: CC(=O)O[C@H]1C(=O)[C@@]2(C)[C@H]([C@H](OC(=O)c3ccccc3)[C@]3(O)C[C@H](OC(=O)[C@H](O)[C@@H](NC(=O)c4ccccc4)c4ccccc4)C(C)=C1C3(C)C)[C@]1(OC(C)=O)CO[C@@H]1C[C@@H]2O [Taxol®]
- anti-tumor effect [1]: failed to produce any significant anti-tumor effect

Compound: G250: MN antibody G250, a humanized IgG1 antibody, (Wilex), used as a reference [reference compound]
- Kd (MN [2]): 5.3 nM
- co-immunoprecipitated proteins (specificity) (MN [3]): selectively bound and co-immunoprecipitated with a single band of the same size as MN

Compound: CCCCCOC(=O)Nc1nc(=O)n([C@@H]2O[C@H](C)[C@@H](O)[C@H]2O)cc1F [Xeloda, reference compound]
- % Inhibition (T/C) (d 17) (Colo-205 CRC xenograft; 250 mg/kg/inj Q1D × 9 PO): 78%
- % Regressions (Colo-205 CRC xenograft; 250 mg/kg/inj Q1D × 9 PO): 0%
- % Weight Loss (d 17) (Colo-205 CRC xenograft; 250 mg/kg/inj Q1D × 9 PO): −0.5%
- % Inhibition (T/C) (d 17) (Colo-205 CRC xenograft; 500 mg/kg/inj Q1D × 9 PO): 86.1%
- % Regressions (Colo-205 CRC xenograft; 500 mg/kg/inj Q1D × 9 PO): 0%
- % Weight Loss (d 17) (Colo-205 CRC xenograft; 500 mg/kg/inj Q1D × 9 PO): −5.6%
- TGI (Colo-205 CRC xenograft; alone 250 mg/kg orally once daily for 9 days): 78%
- TGI (Colo-205 CRC xenograft; alone 500 mg/kg orally once daily for 9 days): 86%
- animals showing regressions (Colo-205 CRC xenograft; both dose groups (250 and 500 mg/kg)): zero

Compound: CC[C@H](C)[C@@H]([C@@H](CC(=O)N1CCC[C@H]1[C@H](OC)[C@@H](C)C(=O)N[C@H](C)[C@@H](O)c1ccccc1)OC)N(C)C(=O)[C@@H](NC(=O)[C@@H](NC)C(C)C)C(C)C [MMAE, Monomethylauristatin E, reference compound] (H-[NMeV]V[Dil][Dolaproine]-X1)
- % Inhibition (1-T/D)*100 (Day 18) ([4]; 0.1 mg/kg): 27%
- Percent Regressions ([4]; 0.1 mg/kg): 0%
- % Inhibition (1-T/D)*100 (Day 18) ([4]; 0.2 mg/kg): 60%
- Percent Regressions ([4]; 0.2 mg/kg): 0%
- % Inhibition (1-T/D)*100 (Day 18) ([4]; 1 mg/kg): Toxic
- tumor responses ([4]; free drug): did not induce any tumor responses
- effect in inhibiting growth ([4]; free drug 0.1 mg/kg): no significant effect
- TGI ([4]; free drug 0.2 mg/kg): 60%
- lethality ([4]; free drug 1 mg/kg): 50%
- tolerability ([4]; free drug 1 mg/kg): considered toxic
- tolerability ([4]; free drug 0.1 and 0.2 mg/kg): well tolerated with non-significant, minimal weight loss

Compound: Nc1ccn([C@@H]2O[C@H](CO)[C@@H](O)C2(F)F)c(=O)n1 [Gemcitabine]
- anti-tumor activity ([1]; 120 mg/kg, i.p., QDx10): highly active
